Laboratory results: patent US6313104A, “Organoprotective solutions” (Abbott Laboratories, priority 1999, dated 2001)
Entries after “also recorded” stand apart in the source; their conditions may differ.

Legend:
MHC class I [1] = assay: IFN-γ-induced MHC class I expression on PTEC, flow cytometry; format: cell-based
Method: (§1) Proximal tubular epithelial cells were cultured according to the methods described by Detrisac et al. (25). In short: PTEC were grown on tissue culture flasks that had been coated with collagen I (Sigma St. Louis Mo.) and Foetel Calf Serum (FCS, from Gibco BRL). The culture medium consisted of Dulbeco's eagle's medium and Ham's medium (both from Gibco BRL) in a 1:1 ratio, supplemented with insulin ([…]), transferrin (5 μg/ml), selenium (5 ng/ml), hydrocortisone (36 ng/ml), triiodothyronine (4 pg/ml) epidermal growth factor (10 ng/ml), and penicillin/streptomycin (5 IE/ml, 5 μg/ml) (all from Sigma). The cell lines were acquired from multiple sources including biopsy tissue pretransplant, allografts unsuitable for transplantation and from grossly normal surgical nephrectomy specimens. Experiments were performed using cells from passages one to four. PTEC were characterized by positive staining for the epithelial membrane antigen (EMA, Dako Glostrup Denmark) and the adenosinedeaminase binding protein (kindly provided by Dr. Dinjens, University Hospital Maastricht, the Netherlands).
(§2) Confluent monolayers of PTEC or HUVEC were trypsinized and seeded in 24-well plates. Upon confluency the cells were stimulated with IFN-γ (Sigma, St. Louis Mo.) for […] in the presence or absence various concentrations of heparinoids in various Heparin (Heparin-Braun®) was purchased from Braun Melsungen (Melsungen, Germany), low molecular weight heparin (Fragmin® P) from Pfrimmer Kabi (Erlangen, Germany), and modified low molecular weight heparins (Knoll AG Ludwigshafen, Germany).
(§3) In some experiments the culture medium was supplemented with sodium chlorate in order to inhibit sulfation of cellbound HSPG. Chlorate was used in concentrations between 50 to 150 mM for 24 hours before addition of IFN-γ and was present during the stimulation period. Sodium chloride was used as osmolarity control. Cultured cells were recovered by brief treatment with trypsin-EDTA for flow cytometry analysis.
(§4) Cells were pooled, divided into two tubes and washed. Isotype matched irrelevant antibodies conjugated to RPE and FITC (from Dako, Glostrup, Denmark) and Cy-5 (from Dianowa, Hamburg, Germany) were added to the first tube which was used as negative control for the FACS settings. Cells from the second tube were labelled with antibodies against MHC class I (RPE-conjugated, W6, 32, Dako), MHC class II (Cy-5-conjugated, CR3/43, Dianova) and ICAM 1 (FITC-conjugated, Dianova) in concentrations according to the instructions of the manufacturer. After incubation for 30 min at 4° C. the cells were washed and analysed by flow cytometry (FACScan, Becton Dickinson); a minimum of 10000 event were analysed. The results are expressed as mean fluorescence intensity (MFI).

MHC class II [2] = assay: IFN-γ-induced MHC class II expression on PTEC, flow cytometry; format: cell-based
Method: as §1, §2, §3, §4

ICAM-1 [3] = assay: IFN-γ-induced ICAM-1 expression on PTEC, flow cytometry; format: cell-based
Method: as §1, §2, §3, §4

MHC class I [4] = assay: IFN-γ-induced MHC class I expression on HUVEC, flow cytometry; format: cell-based, Human; conditions: for upregulation of MHC class I by IFN-γ: HUVEC, 72 hours
Method: (§5) Human umbilical vein endothelial cells were prepared from fresh umbilical cord using the methods described by Jaffe et al (26). Briefly, endothelial cells were isolated from umbilical veins by digestion with collagenase V (Sigma, St. Louis Mo.) for 20 minutes at 37° C. Thereafter the vein was flushes with sterile medium to collect endothelial cells. The culture medium consisted of Medium 199 (Gibco BRL) supplemented with 1% FCS, Endothelial Cell Growth Factor and antibiotics (penicillin-streptomycin). The cells were cultured in 25 cm^2 flasks that had been coated with 1% gelatine (Sigma, St. Louis Mo.).
(§6) All experiments were performed with cells from passage three to six. HUVEC were characterized on the basis of positive staining for factor VIII-related antigen (Dako, High Wycombe, UK) and the endothelial marker EN4 (CD31).
as §2, §4

MHC class II [5] = assay: IFN-γ-induced MHC class II expression on HUVEC, flow cytometry; format: cell-based, Human; conditions: for induction of MHC class II by IFN-γ: HUVEC, 72 hours
Method: as §5, §6, §2, §4

ICAM-1 [6] = assay: IFN-γ-induced ICAM-1 expression on HUVEC, flow cytometry; format: cell-based, Human; conditions: for upregulation of ICAM-1 by IFN-γ: HUVEC, 72 hours
Method: as §5, §6, §2, §4

^125 I-IFN-γ = assay: Dotblot analysis: binding of 125I-IFN-γ to GAG on nitrocellulose; conditions: 1 μl of 1 mg/ml on nitrocellulose, 1 hour at 4° C.
Method: Small strips of nitrocellulose membranes were prepared and 1 μl of heparin, fragmin and the carious GAGS (all in a concentration of 1 mg/ml) were applied onto the strip. After air drying, the strips were fixed in 1% glutaraldehyde +0.5% cetylpyridinium chloride to prevent GAG loss and washed in Tris buffer. The non-occupied protein binding sites were blocked with 5% BSA in PBS for 30 min at 37° C. The strips were subsequently incubated with ^125 I IFN-γ for 1 hour at 4° C. in the presence or absence of heparin. Hereafter the strips were extensively washed with Tris buffer and exposed to a Kodak film.

[7] = PTEC, 150 mM NaClO3 from one day before and during stimulation, IFN-γ 0 to 10 ng/ml, 72 hours
[8] = 50 ng/ml of IFN-γ, 72 hours, no GAG
[9] = 10 ng/ml IFN-γ, test substance 3 mg/ml
[10] = 100 ng/ml IFN-γ, heparin 0.03 to 3 mg/ml
[11] = PTEC, 10 ng/ml IFN-γ, 72 hours, test substance 0.03 mg/ml
[12] = PTEC, 10 ng/ml IFN-γ, 72 hours, test substance 3 mg/ml

## [Na+].[O-][Cl+2]([O-])[O-] [NaClO3, sodium chlorate]
MHC class I [1]; [7]
  modulation of MHC class I expression by IFN-γ in comparison to NaCl treated cultures: significantly reduced
MHC class II [2]; [7]
  modulation of MHC class II expression by IFN-γ in comparison to NaCl treated cultures: significantly reduced
ICAM-1 [3]; [7]
  modulation of ICAM-1 expression by IFN-γ in comparison to NaCl treated cultures: significantly reduced

## IFN-γ: IFN-γ (Sigma), stimulus for MHC and ICAM-1 expression
MHC class I [1]; [8]
  MHC class I expression on PTEC: upregulated
MHC class II [2]; [8]
  MHC class II expression on PTEC: induced
ICAM-1 [3]; [8]
  ICAM-1 expression on PTEC: upregulated

## heparin
MHC class I [4]; [9]
  upregulation of MHC class I by IFN-γ: able to inhibit
MHC class I [4]; [10]
  upregulation of MHC class I by IFN-γ: completely abolished
MHC class I [4]; unstimulated HUVEC
  MHC class I expression in the absence of IFN-γ: no influence
MHC class II [5]; [9]
  induction of MHC class II by IFN-γ: able to inhibit
MHC class II [5]; [10]
  induction of MHC class II by IFN-γ: able to inhibit
MHC class II [5]; unstimulated HUVEC
  MHC class II expression in the absence of IFN-γ: no influence
ICAM-1 [6]; [9]
  upregulation of ICAM-1 by IFN-γ: able to inhibit
ICAM-1 [6]; [10]
  upregulation of ICAM-1 by IFN-γ: completely abolished
ICAM-1 [6]; unstimulated HUVEC
  ICAM-1 expression in the absence of IFN-γ: no influence
MHC class I [1]; [11]
  MHC class I expression after IFN-γ stimulation: did not significantly inhibit
MHC class I [1]; [12]
  upregulation of MHC class I by IFN-γ: only a marginal influence; also recorded: able to inhibit
MHC class I [1]; PTEC, 100 ng/ml IFN-γ
  upregulation of MHC class I by IFN-γ: not influenced
MHC class II [2]; [11]
  MHC class II expression after IFN-γ stimulation: did not significantly inhibit
MHC class II [2]; [12]
  induction of MHC class II by IFN-γ: able to inhibit
MHC class II [2]; PTEC, 100 ng/ml IFN-γ
  induction of MHC class II by IFN-γ: able to inhibit
ICAM-1 [3]; [11]
  upregulation of ICAM-1 by IFN-γ: significantly inhibited
ICAM-1 [3]; [12]
  upregulation of ICAM-1 by IFN-γ: able to inhibit
ICAM-1 [3]; PTEC, 100 ng/ml IFN-γ
  upregulation of ICAM-1 by IFN-γ: able to inhibit
^125 I-IFN-γ
  binding of 125I-IFN-γ with coincubation of a 3000 fold excess of fluidphase heparin: strongly reduced
^125 I-IFN-γ; absence of fluidphase heparin
  binding of 125I-IFN-γ: can bind
